Common to all, as to format: cell-based
One assay concerns the target T1, human P2X2 receptor WT (Homo sapiens, UniProt Q9UBL9).
T1 sequence (Q9UBL9 1-471): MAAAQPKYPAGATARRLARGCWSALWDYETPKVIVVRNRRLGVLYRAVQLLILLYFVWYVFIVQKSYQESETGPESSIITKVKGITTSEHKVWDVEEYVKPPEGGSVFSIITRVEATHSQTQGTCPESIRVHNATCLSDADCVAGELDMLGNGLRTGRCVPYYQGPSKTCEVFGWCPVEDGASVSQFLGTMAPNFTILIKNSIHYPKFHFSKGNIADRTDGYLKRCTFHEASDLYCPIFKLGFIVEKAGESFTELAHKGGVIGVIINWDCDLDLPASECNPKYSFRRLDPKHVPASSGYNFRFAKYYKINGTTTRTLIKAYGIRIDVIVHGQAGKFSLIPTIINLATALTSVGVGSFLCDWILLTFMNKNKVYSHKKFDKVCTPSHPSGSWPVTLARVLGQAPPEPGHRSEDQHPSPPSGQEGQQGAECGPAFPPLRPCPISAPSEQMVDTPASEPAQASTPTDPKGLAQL
Put plainly: Two-electrode voltage clamp, WT P2X2 receptor in Xenopus oocytes. (In two-electrode clamp one electrode senses voltage and the other passes current.)

A further assay concerns the target T2, P2X1 Cys2(1-3) chimera (Homo sapiens, UniProt P51575, A118P/DEL120-123/E128S/G124S/G131D/INS125RVHNAT/K127L/S130A).
T2 sequence (P51575 with tags, fused parts or gaps A118P/DEL120-123/G124S/INS125RVHNAT/K127L/E128S/S130A/G131D): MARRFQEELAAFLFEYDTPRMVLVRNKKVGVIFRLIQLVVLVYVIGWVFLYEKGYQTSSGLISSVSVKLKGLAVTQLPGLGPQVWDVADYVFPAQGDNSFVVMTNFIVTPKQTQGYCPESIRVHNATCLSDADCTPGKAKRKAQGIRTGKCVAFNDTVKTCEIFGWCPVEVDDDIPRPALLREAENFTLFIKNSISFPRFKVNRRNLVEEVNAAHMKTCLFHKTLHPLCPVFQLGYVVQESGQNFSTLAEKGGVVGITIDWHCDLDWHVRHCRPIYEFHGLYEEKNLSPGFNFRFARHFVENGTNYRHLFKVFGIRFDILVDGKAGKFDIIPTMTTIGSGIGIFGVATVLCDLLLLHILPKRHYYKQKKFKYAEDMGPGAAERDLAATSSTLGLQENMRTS
Put plainly: Two-electrode voltage clamp, chimera P2X1 Cys2.

In assay [1] the target is T3, P2X1 receptor mutant K136E (Homo sapiens, UniProt P51575, K136E).
T3 sequence (P51575 1-399 K136E): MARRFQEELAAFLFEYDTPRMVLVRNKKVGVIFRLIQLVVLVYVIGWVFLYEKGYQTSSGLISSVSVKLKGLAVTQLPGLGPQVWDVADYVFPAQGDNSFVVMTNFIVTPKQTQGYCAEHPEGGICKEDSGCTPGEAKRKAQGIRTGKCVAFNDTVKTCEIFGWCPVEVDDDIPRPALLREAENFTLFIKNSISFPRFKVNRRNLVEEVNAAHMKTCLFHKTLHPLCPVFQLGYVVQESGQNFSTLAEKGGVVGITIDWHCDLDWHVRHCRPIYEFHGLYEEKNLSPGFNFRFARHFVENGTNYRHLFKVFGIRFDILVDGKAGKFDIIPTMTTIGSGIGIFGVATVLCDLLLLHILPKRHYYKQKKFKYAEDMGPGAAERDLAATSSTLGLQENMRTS
Put plainly: Two-electrode voltage clamp, P2X1 mutant K136E.

Assay [2] concerns the target T4, P2X1 receptor mutant K140L (Homo sapiens, UniProt P51575, K140L).
T4 sequence (P51575 1-399 K140L): T3 sequence (P51575 1-399 K136E) with E136K, K140L
Nature of the assay: Two-electrode voltage clamp, P2X1 mutant K140L.

For another assay, the target named is T5, P2X2 Cys1(3-4) chimera (Homo sapiens, UniProt Q9UBL9, A144P/D148K/E146K/G151A/L147A/L150K/L154I/M149R/N152Q/R158K/V143T).
T5 sequence (Q9UBL9 1-471 V143T/A144P/E146K/L147A/D148K/M149R/L150K/G151A/N152Q/L154I/R158K): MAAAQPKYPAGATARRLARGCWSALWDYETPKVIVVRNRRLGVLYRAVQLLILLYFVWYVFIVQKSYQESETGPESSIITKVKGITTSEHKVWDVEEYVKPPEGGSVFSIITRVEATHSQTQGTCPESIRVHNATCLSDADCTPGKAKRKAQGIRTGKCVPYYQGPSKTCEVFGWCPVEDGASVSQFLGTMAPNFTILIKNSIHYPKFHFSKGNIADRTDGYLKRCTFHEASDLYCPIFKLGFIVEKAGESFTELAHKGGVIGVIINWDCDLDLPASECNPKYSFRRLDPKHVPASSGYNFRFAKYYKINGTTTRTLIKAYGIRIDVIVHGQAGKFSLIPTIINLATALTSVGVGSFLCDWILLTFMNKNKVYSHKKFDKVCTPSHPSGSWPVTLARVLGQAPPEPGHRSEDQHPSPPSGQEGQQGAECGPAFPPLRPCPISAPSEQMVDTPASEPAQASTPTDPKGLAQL
Nature of the assay: Two-electrode voltage clamp, chimera P2X2 Cys1.

In assay [3] the target is T6, P2X2 receptor mutant D136K (Homo sapiens, UniProt Q9UBL9, D148K).
T6 sequence (Q9UBL9 1-471 D148K): T1 sequence (Q9UBL9 1-471) with D148K
Put plainly: Two-electrode voltage clamp, P2X2 mutant D136K.

Where [4] appears, read: 1 nM antagonist, EC90 ATP (10 µM).

The values below come from PMC3268193 (British Journal of Pharmacology, 2012).

As a reminder, the IC50 is the concentration at which inhibition is half-maximal.

Changes are numbered by the printed parent chain. “And” between values parts separate entries of the source, which are not always exact repeats. Identical values can stand only once.

With `O=C(Nc1cc(C(=O)Nc2ccc(S(=O)(=O)O)cc2S(=O)(=O)O)cc(C(=O)Nc2ccc(S(=O)(=O)O)cc2S(=O)(=O)O)c1)Nc1cc(C(=O)Nc2ccc(S(=O)(=O)O)cc2S(=O)(=O)O)cc(C(=O)Nc2ccc(S(=O)(=O)O)cc2S(=O)(=O)O)c1` [NF449, 4,4′,4′′,4′′′-(carbonylbis(imino-5,1,3-benzenetriyl-bis(carbonylimino)))tetrakis-benzene-1,3-disulphonic acid], at human P2X2 receptor WT (P2X2 WT, vs EC90 concentration of ATP), the “NF449 pIC50” value is reported as 5.86 ± 0.09. For the same molecule, on human P2X2 receptor WT (WT P2X2, vs EC90 ATP), the “Hill slope of NF449 inhibition curve” value is 1.61 ± 0.08. Further, the IC50 is ~1 µM and ~1.5 µM on human P2X2 receptor WT (read-out: NF449 IC50, P2X2 receptor, vs EC90 ATP (30 µM)); 1.1 µM on P2X2 Cys1(3-4) chimera (read-out: NF449 IC50, vs EC90 ATP). Besides, on P2X1 Cys2(1-3) chimera, the “Reduction in NF449 sensitivity compared with P2X1 WT” value is given as ~20 fold. In addition, the “Reduction of ATP-evoked current” value in assay [1] (setting [4]) and in assay [2] (setting [4]) was 40–70% in each case. Moreover, the “Effect of mutation on NF449 sensitivity” value in assay [3] was “no effect”.

As for `Cc1ccc(C(=O)Nc2ccc(S(=O)(=O)O)c3cc(S(=O)(=O)O)cc(S(=O)(=O)O)c23)cc1NC(=O)c1cccc(NC(=O)Nc2cccc(C(=O)Nc3cc(C(=O)Nc4ccc(S(=O)(=O)O)c5cc(S(=O)(=O)O)cc(S(=O)(=O)O)c45)ccc3C)c2)c1` [suramin], the “Reduction of responses to ATP” value on human P2X2 receptor WT (P2X2, 100 µM suramin, ATP 30 µM (EC90)) is ~50%. At P2X1 Cys2(1-3) chimera, the “Increase in suramin sensitivity compared with WT P2X1” value is 15 fold. Besides, the “Effect of mutation on suramin sensitivity” value in assay [1], in assay [2] and in assay [3] was “no effect” in each case. Moreover, the “Increase in suramin sensitivity compared with WT P2X2” value at P2X2 Cys1(3-4) chimera is given as ~30 fold.
